Assay results taken from patent US20250186452A1, “NOVEL USE OF QUINOLINE COMPOUND” (TARAPEUTICS SCIENCE INC., priority 2022, published 2025).

How the values were obtained:
MC38 cells = experiment: In vivo efficacy in MC38 cell tumor transplantation mouse model
Description: In this example, the experimental effects of Compound 2 and the control compound PLX3397 (purchased from MedChem Express, China) in MC38 and 4T1 mouse models were tested respectively.
The experimental procedure was as follows: • (1) C57BL/6J male mice for use as MC38 transplanted tumor model and Balb/c male mice for use as 4T1 transplanted tumor model, which were 6 weeks old, were purchased from GemPharmatech Co., Ltd, Jiangsu. All the above mice were raised in an SPF laboratory, and the drinking water and padding had been sterilized by high pressure sterilization. All operations related to mice were performed under sterile conditions. • (2) On day 0, approximately 1×10^6 MC38 cells (purchased from ATCC) were injected subcutaneously into the left back of each of the C57BL/6J mice, and approximately 1×10^6 4T1 cells (purchased from ATCC) were injected subcutaneously into the left back of each of the Balb/c mice. • (3) For the MC38 mouse model, starting from the 6th day, the corresponding mice were orally administered with methylcellulose (HKI) (purchased from China National Pharmaceutical Group Corporation) solvent once a day (5 mice); Compound 2 at a dose of 50 mg/kg mouse weight once a day (5 mice); PLX3397 at a dose of 50 mg/kg mouse weight once a day (5 mice). For the 4T1 mouse model, starting from the 6th day, the corresponding mice were orally administered with 10% HS-15 (purchased from BASF, Germany) solvent (5 mice); Compound 2 at a dose of 50 mg/kg mouse weight once a day (5 mice); PLX3397 at a dose of 50 mg/kg mouse weight once a day (5 mice). • (4) Starting from the 6th day, the length/width of the subcutaneous tumor was measured with a vernier caliper every day, and the weight of the mice was recorded every day to determine the effects of Compound 2 and control compound PLX3397 on the weight of mice in different model mice. The results are shown in FIGS. 3 and 6. • (5) The growth trends of subcutaneous tumors in mice of different models were statistically analyzed. The tumor volume was calculated using the following method: length×width×width/2 mm^3. The results are shown in FIGS. 4 and 7. • (6) Isolation of tumor-infiltrating lymphocytes: Tumor tissue was first minced (tissue block less than 1 mm^3) with a surgical blade, resuspended in 6 ml of digestion solution (collagenase IV and 0.005% DNaseI enzyme, both purchased from Sigma, USA), and the mixture was transferred to a 15-ml centrifuge tube. The centrifuge tube was then placed in a shaker at 37° C. and digested with shaking at 220 r/min for 2 hours. The cells were sieved through a 200-mesh sieve and collected in a 50-ml centrifuge tube, and centrifuged at 1500 rpm for 10 minutes. The supernatant was then discarded, and 10 ml of DMEM medium (10% FBS) (purchased from GIBCO, USA) was added to the tube to terminate the digestion. The tube was placed in a centrifuge, and centrifuged at 1500 rpm for another 10 minutes. The supernatant was discarded. At the same time, Percoll separation solution (purchased from Millipore, USA) was prepared, and 90% Percoll separation working solution was prepared using 10×PBS. To a 15 ml centrifuge tube, 3-4 ml of 70% Percoll separation solution was added. The cells were resuspended in 4 ml of 40% Percoll separation solution, and the cell mixture was added to the 70% Percoll separation solution. The centrifuge tube was placed in a centrifuge and subjected to density gradient centrifugation at 25° C., 1260 g, for 30 minutes (speed up 5, speed down 0). After the centrifugation, the centrifuge tube was placed on a centrifuge tube rack, the middle leukocyte layer was aspirated with a pipette, and added to 10 ml of PBS, they were mixed well and placed in a centrifuge, and centrifuged at 1500 rpm. The cell supernatant was discarded after 10 min and the cells were resuspended in 5 ml of PBS, centrifuged at 1500 rpm for another 10 min, and the washing process was repeated once. The cells obtained were leukocytes in the tumor tissue. […]

TEL-CSF1R-BaF3 = molecular target: T1, TEL-CSF1R-BaF3 (Homo sapiens, UniProt P07333); experiment: Proliferation of TEL-CSF1R-BaF3 cells (CCK-8, 72 hours); assay type: cell-based; details: 72 hours incubation, CCK-8
T1 construct: expressed in transfected cells; host or cells: mouse BaF3 cells (ATCC), retroviral transduction with MSCV-Puro vector, IL-3 withdrawn; the other entry of the earlier key: ETV6 (P41212, Transcription factor ETV6)
T1 sequence (P07333 582-910 limits assumed): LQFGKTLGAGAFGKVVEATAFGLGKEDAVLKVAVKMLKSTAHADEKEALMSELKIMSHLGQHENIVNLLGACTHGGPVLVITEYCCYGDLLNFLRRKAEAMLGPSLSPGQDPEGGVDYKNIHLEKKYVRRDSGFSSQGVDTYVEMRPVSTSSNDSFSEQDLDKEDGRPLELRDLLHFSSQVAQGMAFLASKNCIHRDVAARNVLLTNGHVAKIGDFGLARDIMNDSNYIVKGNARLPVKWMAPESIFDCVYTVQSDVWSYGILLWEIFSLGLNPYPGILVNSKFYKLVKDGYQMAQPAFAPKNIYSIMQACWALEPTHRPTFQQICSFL
Description: The incubated cells were detected by CCK-8 (purchased from MedChem Express, China) cell viability detection kit (CCK-8 can be reduced by dehydrogenases in living cells to a highly water-soluble yellow formazan product, and the amount of the generated formazan product is proportional to the number of living cells). The number of living cells was quantified by a microplate reader, and the GI50 for each compound was calculated (the results are shown in Table 2).
The construction method of the TEL-CSF1R-BaF3 cell line (a cell line stably expressing CSF1R kinase) was as follows: the sequence of human CSF1R kinase region was amplified by PCR and inserted into the MSCV-Puro vector (Clontech) with an N-terminal TEL fragment, and stably transferred into mouse BaF3 cells (purchased from ATCC, USA) by a retroviral method, and IL-3 growth factor was removed, finally a cell line dependent on CSF1R transferred protein was obtained.

COc1cc2nccc(Oc3ccc(NC(=O)Cc4ccc(Cl)c(C(F)(F)F)c4)cc3)c2cc1OC [Example 2, N-(4-((6,7-dimethoxyquinolin-4-yl)oxy)phenyl)-2-(4-chloro-3-(trifluoromethyl)phenyl)-acetamide]
toxicity (mouse body weight) (MC38 cells; 50 mg/kg oral once a day, FIG. 3): no obvious toxicity
inhibition effect of mouse tumors (MC38 cells; 50 mg/kg oral once a day, FIG. 4): good inhibition effect of mouse tumors
inhibitory effect on mouse tumors compared with PLX3397 (MC38 cells; 50 mg/kg oral once a day, as days of administration increased): superior to the effect of the control compound PLX3397
proportion of M1 macrophages around the tumor versus solvent group (MC38 cells; 50 mg/kg oral, flow cytometry, FIG. 5): much higher than that in the solvent group
proportion of M1 macrophages in the tumor microenvironment versus PLX3397 group (MC38 cells; same dose 50 mg/kg, FIG. 5): higher than that of the PLX3397 group
GI50 (TEL-CSF1R-BaF3): 0.003 µM
